Measurements reported in ChEMBL document CHEMBL4411304, “CDK8 as a therapeutic target for cancers and recent developments in discovery of CDK8 inhibitors” (Eur J Med Chem, 2019).

What was measured:
[1] = biological target: T1, Cyclin-dependent kinase 19 (Homo sapiens, UniProt Q9BWU1); assay: Inhibition of wild-type partial length human CDK11 (M1 to N360 residues) expressed in bacterial expression system at 300 nM by Kinomescan assay
[2] = biological target: T2, Serine/threonine-protein kinase haspin (Homo sapiens) (UniProt Q8TF76); assay: Inhibition of wild-type human partial length HASPIN (I452 to K798 residues) expressed in mammalian expression system at 300 nM by Kinomescan method relative to control
T2 sequence (whole entry): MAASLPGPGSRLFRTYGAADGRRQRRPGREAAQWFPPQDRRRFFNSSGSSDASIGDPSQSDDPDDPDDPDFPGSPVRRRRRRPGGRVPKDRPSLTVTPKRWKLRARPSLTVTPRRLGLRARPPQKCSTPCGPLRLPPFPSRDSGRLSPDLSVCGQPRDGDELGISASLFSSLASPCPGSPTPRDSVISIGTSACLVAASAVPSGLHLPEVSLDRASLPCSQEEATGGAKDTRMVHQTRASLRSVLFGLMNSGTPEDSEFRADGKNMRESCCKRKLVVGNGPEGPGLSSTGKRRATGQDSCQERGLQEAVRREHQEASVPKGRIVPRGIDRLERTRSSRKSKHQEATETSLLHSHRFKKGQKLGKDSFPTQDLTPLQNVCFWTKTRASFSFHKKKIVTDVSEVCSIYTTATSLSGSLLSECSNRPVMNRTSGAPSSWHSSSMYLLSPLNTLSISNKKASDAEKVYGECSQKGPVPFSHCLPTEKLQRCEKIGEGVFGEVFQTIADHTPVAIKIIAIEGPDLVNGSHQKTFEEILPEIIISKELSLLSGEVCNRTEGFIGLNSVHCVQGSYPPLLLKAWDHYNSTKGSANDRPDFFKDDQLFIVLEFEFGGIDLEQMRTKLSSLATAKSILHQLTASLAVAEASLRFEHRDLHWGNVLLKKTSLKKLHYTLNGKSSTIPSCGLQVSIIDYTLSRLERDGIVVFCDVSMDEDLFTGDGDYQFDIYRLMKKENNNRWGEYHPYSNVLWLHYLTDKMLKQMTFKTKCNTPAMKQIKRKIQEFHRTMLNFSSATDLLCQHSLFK

COLO 205 = assay: Growth inhibition of CDK8 over-expressing human COLO205 cells by MTT assay; format: functional
HT-29 = assay: Growth inhibition of CDK8 over-expressing human HT-29 cells by MTT assay; format: functional
HCT-116 = assay: Growth inhibition of CDK8 over-expressing human HCT116 cells by MTT assay; format: functional
CDK8/Cyclin C = CDK8/Cyclin C (Homo sapiens, UniProt P49336); assay: Inhibition of recombinant human full-length GST/His-fused CDK8/CycC expressed in Sf9 insect cells using RBER-IRStide as substrate after 1 hr in presence of [gamma33P-ATP] by microbeta scintillation counting method
Sequence of CDK8/Cyclin C (P49336 whole entry, the tested form may be a part): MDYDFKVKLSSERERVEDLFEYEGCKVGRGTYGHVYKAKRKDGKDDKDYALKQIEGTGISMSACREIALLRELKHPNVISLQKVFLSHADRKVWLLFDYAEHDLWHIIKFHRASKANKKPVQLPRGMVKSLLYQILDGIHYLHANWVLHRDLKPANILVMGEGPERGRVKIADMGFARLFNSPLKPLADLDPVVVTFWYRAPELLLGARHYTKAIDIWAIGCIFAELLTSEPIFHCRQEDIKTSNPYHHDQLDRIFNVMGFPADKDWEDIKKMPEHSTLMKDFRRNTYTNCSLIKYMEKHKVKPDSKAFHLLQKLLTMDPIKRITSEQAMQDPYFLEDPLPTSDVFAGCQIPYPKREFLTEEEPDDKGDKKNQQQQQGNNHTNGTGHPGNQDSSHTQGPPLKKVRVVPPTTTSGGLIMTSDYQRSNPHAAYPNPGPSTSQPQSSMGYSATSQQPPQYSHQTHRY
Sequence of CDK8/Cyclin C (P24863 whole entry, further chain, the tested form may be a part): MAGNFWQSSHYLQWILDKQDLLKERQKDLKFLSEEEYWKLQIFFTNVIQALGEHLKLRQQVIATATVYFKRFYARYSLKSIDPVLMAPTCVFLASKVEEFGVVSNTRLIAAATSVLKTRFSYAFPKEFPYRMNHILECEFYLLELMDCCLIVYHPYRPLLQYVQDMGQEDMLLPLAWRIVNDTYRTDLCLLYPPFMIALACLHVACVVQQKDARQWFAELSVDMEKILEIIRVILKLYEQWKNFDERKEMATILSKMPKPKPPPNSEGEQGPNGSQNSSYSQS

HUVEC = assay: Antiproliferative activity against VEGF-stimulated HUVEC; format: functional, cell-based; settings: Homo sapiens
[3] = Selectivity index, ratio of IC50 for NHDF cells to IC50 for VEGF-stimulated HUVEC; design: species or system Homo sapiens
[4] = biological target: Rho-associated protein kinase 1 (Homo sapiens, UniProt Q13464); assay: Binding affinity to wild-type partial length human ROCK1 (M1 to R415 residues) expressed in mammalian expression system by Kinomescan assay
Sequence of Rho-associated protein kinase 1 (Q13464 whole entry, the tested form may be a part): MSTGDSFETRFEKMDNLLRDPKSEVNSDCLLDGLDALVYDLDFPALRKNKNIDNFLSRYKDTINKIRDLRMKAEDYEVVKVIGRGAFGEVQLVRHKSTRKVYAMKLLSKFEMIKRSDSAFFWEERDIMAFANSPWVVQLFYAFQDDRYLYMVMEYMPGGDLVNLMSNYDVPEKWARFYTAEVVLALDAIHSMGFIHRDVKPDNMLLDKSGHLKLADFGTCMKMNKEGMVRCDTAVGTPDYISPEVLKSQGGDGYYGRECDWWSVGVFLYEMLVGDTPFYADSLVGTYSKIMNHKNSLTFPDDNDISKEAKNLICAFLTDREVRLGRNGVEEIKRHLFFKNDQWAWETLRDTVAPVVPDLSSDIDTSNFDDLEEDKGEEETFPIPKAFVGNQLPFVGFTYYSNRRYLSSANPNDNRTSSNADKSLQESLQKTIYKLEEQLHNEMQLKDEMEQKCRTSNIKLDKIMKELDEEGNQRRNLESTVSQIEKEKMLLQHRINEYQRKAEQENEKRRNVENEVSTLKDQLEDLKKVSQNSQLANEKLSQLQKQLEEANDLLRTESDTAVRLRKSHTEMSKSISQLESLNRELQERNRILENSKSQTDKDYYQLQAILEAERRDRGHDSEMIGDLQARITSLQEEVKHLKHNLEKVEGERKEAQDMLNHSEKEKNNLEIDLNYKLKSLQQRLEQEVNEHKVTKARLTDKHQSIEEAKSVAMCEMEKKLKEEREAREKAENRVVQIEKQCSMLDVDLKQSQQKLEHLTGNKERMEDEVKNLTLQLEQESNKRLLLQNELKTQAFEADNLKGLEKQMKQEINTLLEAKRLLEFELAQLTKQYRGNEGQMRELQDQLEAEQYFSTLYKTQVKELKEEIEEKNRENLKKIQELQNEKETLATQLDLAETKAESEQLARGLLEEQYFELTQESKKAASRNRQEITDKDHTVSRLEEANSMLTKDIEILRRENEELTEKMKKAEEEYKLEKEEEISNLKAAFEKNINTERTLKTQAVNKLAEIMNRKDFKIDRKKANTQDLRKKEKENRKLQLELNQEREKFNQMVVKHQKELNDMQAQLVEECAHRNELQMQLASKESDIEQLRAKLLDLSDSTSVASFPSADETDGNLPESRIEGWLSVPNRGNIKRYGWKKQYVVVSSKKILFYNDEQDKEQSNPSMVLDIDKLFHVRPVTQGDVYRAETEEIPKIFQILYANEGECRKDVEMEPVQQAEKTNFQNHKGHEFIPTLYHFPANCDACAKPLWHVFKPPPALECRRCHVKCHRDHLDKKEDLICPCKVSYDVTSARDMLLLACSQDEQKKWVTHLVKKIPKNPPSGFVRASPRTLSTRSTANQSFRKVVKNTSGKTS

[5] = biological target: Rho-associated protein kinase 2 (Homo sapiens, UniProt O75116); assay: Binding affinity to wild-type partial length human ROCK2 (M1 to T431 residues) expressed in mammalian expression system by Kinomescan assay
Sequence of Rho-associated protein kinase 2 (O75116 whole entry, the tested form may be a part): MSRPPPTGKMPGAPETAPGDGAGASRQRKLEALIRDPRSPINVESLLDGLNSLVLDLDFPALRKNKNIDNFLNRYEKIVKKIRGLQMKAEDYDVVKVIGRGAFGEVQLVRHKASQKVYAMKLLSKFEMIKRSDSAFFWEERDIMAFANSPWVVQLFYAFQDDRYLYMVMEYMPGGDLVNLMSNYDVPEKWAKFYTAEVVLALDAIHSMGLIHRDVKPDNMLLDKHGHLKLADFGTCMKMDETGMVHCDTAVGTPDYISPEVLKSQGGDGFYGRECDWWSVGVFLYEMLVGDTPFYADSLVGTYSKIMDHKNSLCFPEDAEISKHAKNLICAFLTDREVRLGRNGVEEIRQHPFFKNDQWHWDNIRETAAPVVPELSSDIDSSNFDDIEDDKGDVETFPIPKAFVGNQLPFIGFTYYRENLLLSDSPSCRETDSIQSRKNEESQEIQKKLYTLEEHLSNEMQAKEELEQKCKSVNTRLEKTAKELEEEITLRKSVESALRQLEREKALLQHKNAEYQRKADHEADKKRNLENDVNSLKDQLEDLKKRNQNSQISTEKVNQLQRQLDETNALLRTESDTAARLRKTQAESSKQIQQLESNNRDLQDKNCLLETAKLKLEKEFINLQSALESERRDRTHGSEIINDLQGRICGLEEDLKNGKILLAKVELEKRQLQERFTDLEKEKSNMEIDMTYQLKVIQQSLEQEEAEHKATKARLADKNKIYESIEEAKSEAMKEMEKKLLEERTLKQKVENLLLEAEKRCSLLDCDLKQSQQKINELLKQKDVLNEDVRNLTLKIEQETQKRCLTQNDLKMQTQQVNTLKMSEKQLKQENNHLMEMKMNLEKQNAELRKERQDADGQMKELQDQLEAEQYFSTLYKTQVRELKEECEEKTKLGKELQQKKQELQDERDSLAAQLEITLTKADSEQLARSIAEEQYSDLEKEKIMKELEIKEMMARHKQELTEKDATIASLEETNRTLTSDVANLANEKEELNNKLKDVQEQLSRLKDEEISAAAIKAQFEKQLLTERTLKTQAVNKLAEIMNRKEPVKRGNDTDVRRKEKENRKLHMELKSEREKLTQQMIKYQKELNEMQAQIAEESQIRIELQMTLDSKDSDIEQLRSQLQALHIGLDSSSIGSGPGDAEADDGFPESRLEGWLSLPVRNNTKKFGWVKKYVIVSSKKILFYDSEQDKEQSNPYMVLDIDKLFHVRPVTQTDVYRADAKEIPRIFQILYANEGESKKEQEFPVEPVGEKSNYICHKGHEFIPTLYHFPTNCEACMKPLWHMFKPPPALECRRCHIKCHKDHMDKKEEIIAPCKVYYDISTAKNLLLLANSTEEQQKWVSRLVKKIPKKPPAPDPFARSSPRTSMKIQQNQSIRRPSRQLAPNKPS

[6] = biological target: cAMP-dependent protein kinase catalytic subunit alpha (Homo sapiens, UniProt P17612); assay: Binding affinity to wild-type partial length human PKACalpha (G10 to F351 residues) expressed in bacterial expression system by Kinomescan assay
[7] = biological target: Cyclin-dependent kinase 8 (Homo sapiens, UniProt P49336); assay: Binding affinity to wild-type partial length human CDK8 (M1 to T360 residues) expressed in bacterial expression system by Kinomescan assay
Sequence of Cyclin-dependent kinase 8 (P49336 whole entry, the tested form may be a part): as the sequence (P49336 whole entry, the tested form may be a part) above

[8] = biological target: T1, Cyclin-dependent kinase 19; assay: Binding affinity to wild-type partial length human CDK11 (M1 to N360 residues) expressed in bacterial expression system by Kinomescan assay
NHDF = assay: Cytotoxicity against NHDF cells; format: cell-based; settings: Homo sapiens
[9] = biological target: Cyclin-C/Cyclin-dependent kinase 19 (Homo sapiens, UniProt Q9BWU1); assay: Inhibition of recombinant human GST/His-tagged CDK11 (1 to 502 residues)/cyclinC (1 to 283 residues) catalytic domain expressed in insect cells by Lantha screen eu binding assay
Sequence of Cyclin-C/Cyclin-dependent kinase 19 (Q9BWU1 whole entry, the tested form may be a part): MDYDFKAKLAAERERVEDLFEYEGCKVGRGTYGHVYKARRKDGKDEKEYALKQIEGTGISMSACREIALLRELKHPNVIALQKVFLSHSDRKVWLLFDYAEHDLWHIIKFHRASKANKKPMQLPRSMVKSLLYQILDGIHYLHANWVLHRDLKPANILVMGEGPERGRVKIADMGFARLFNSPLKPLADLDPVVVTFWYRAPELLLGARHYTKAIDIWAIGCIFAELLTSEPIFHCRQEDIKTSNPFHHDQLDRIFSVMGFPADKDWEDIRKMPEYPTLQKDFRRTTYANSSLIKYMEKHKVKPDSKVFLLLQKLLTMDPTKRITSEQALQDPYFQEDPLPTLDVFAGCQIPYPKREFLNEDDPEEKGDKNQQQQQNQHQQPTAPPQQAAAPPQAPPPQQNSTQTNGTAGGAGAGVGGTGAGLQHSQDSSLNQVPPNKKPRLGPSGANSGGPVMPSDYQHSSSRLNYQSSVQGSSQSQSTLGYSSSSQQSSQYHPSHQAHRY
Sequence of Cyclin-C/Cyclin-dependent kinase 19 (P24863 whole entry, further chain, the tested form may be a part): as the sequence (P24863 whole entry, further chain, the tested form may be a part) above

T1 sequence (Q9BWU1 whole entry, the tested form may be a part): as the sequence (Q9BWU1 whole entry, the tested form may be a part) above

`Cc1ncccc1Oc1sc(C(N)=O)c2c1-c1c(cnn1C)CC2` showed an inhibition [1] of 99% and an inhibition [2] of 99%.

In the case of `Fc1ccc2nccc(Nc3ccccc3F)c2c1`, the GI50 (COLO 205) is reported as 6.43 to 11.3 µM, the GI50 (HT-29) is reported as 6.43 to 11.3 µM and the GI50 (HCT-116) is reported as 6.43 to 11.3 µM. For the same molecule, the IC50 (CDK8/Cyclin C) was 386 nM.

With `Cc1ccc(NC(=O)Nc2nnc(-c3cccc(F)c3)s2)cc1C` the GI50 (COLO 205) was 6.43 to 11.3 µM, the GI50 (HT-29) was 6.43 to 11.3 µM and the GI50 (HCT-116) was 6.43 to 11.3 µM. It also gave an IC50 (CDK8/Cyclin C) of 47 nM.

`Cc1ccc(NC(=O)Nc2ccc(Cc3ccncc3)cc2)cc1C` gave a GI50 (COLO 205) of 6.43 to 11.3 µM, a GI50 (HT-29) of 6.43 to 11.3 µM and a GI50 (HCT-116) of 6.43 to 11.3 µM. It also gave an IC50 (CDK8/Cyclin C) of 18 nM.

With `CN(C)[C@H]1C[C@@]23CC[C@@]4(O2)C(=CC[C@]2(C)[C@@H](c5ccc6ccncc6c5)CC[C@H]24)C=C3[C@@H](O)[C@@H]1O` the IC50 (HUVEC) was 1.8 nM, the “Ratio IC50” value [3] was 3300 and the Kd [4] was 250 nM. The Kd [5] was 220 nM, the Kd [6] was 3.5 µM and the Kd [7] was 17 nM. It also gave a Kd [8] of 10 nM and an IC50 (NHDF) of 6 µM.

With `CC1CCc2nc(N)c(C#N)c(-c3cccnc3)c2C1` (stereo unspecified) the IC50 [9] was greater than 30 µM.

With `O=C(/C=C/c1cnccc1-c1ccc(F)cc1)Nc1ccc(CCc2nnco2)cc1` the inhibition [1] was 94%.

For `N#Cc1ccc2ncnc(NCCc3ccccc3)c2c1`, the Kd [7] was 830 nM and the Kd [8] was 310 nM.
